Source: paper PMC7722354, “7-Substituted 2-Nitro-5,6-dihydroimidazo[2,1-b][1,3]oxazines: Novel Antitubercular Agents Lead to a New Preclinical Candidate for Visceral Leishmaniasis” (Journal of Medicinal Chemistry, 2017)
Values after ≈ are worked out from the molar mass of the structure shown. Where two headings read alike, the source gives them in different places. Marks after values point to notes of the source that are not given here.

Experiments:
[1] = physchem
[2] = test system: Caco-2; settings: cited from earlier work
[3] = test system: human lung fibroblasts (MRC-5 cells); parameters: method as in PMID 26901446; settings: cytotoxicity; cited from earlier work
[4] = test system: Leishmania donovani; parameters: method as in PMID 26901446; settings: in mouse macrophages; cited from earlier work
[5] = test system: Salmonella strains (TA98 and TA100)
Source text: Ames Test. […] Two Salmonella strains (TA98 and TA100) were employed, both in the presence and absence of metabolic activation (rat liver S9). Positive controls (2-aminoanthracene, 2-nitrofluorene, and sodium azide) and a negative (DMSO solvent) control were included.

[6] = kinetic aqueous solubility (Method A); assay type: physicochemical; settings: water, pH 7, kinetic
[7] = test system: human lung fibroblasts (MRC-5 cells); experiment: cytotoxicity toward MRC-5 cells (LMPH); assay type: cell-based; settings: MRC5
[8] = test system: Leishmania donovani; experiment: L. don amastigote mouse macrophage-based luciferase assay (CDRI); assay type: cell-based; settings: in mouse macrophages, single test (CDRI)
[9] = test system: Leishmania infantum; experiment: L. inf growth inhibition in mouse macrophages (LMPH); assay type: cell-based; settings: Macrophage, mean of at least two determinations
[10] = test system: M. tb, strain H37Rv; experiment: MABA minimum inhibitory concentration assay (aerobic); assay type: cell-based, Mycobacterium tuberculosis
[11] = test system: Trypanosoma cruzi; experiment: T. cruzi growth inhibition on MRC-5 cells (LMPH); assay type: cell-based; settings: MRC5
[12] = test system: L. donovani; experiment: acute VL infection assay (L. don mouse model, LSHTM); settings: Leishmania donovani, po, 120 h; 50 mg/kg orally once daily 5 days; liver parasite burden; read-out: in vivo efficacy against L. don (mouse), % inhibition
[13] = test system: M. tb, strain H37Rv; experiment: LORA minimum inhibitory concentration assay (hypoxic); assay type: cell-based; settings: Mycobacterium tuberculosis
[14] = mouse pharmacokinetics; assay type: in vivo; settings: mice, oral 40 mg/kg
[15] = test system: L. donovani; settings: L. don hamster model, 50 mg/kg, 5 days oral dosing
Procedure: Groups of hamsters having an appropriate infection grading (5–15 amastigotes/100 spleen cell nuclei) were treated with test compounds, starting on day 17 and dosing orally once per day for 5 days, according to the usual procedure.[10] Post-treatment splenic biopsies taken 12 days after the first dose were employed to determine the intensity of infection, as previously reported.[10]

[16] = water (pH 7), 20 °C, read-out: aq solubility pH 7
[17] = Mycobacterium tuberculosis, H37RV, aerobic, read-out: MIC MABA

SMILES | solubility at 15 min [6, 16] | IC50 [7] | IC50 [8] | IC50 [9] | MIC [10, 17] | IC50 [11] | inhibition in vivo at 50 mg/kg [12] | MIC [13] | further results
C[C@]1(COc2ccc(OC(F)(F)F)cc2)Cn2cc([N+](=O)[O-])nc2O1 [compound 4] |  |  |  |  |  |  |  |  | logD [1]: 3.1; permeability Papp A to B [2]: 22.6 × 10^–6 cm/s; permeability Papp B to A [2]: 24.7 × 10^–6 cm/s; IC50 [3]: > 64 µM; IC50 [4]: 0.03 µM; mutagenic effect (Ames test) [5]: no
O=[N+]([O-])c1cn2c(n1)OC(COCc1ccc(-c3ccc(OC(F)(F)F)cc3)cc1)CC2 (centres unmarked) [compound 28] | 0.058 µg/mL (≈ 0.129 µM) | > 64 µM | 0.19 µM | 0.4 µM | 0.055 µM (≈ 0.0247 µg/mL) | 2.1 µM | 49% | 1.5 µM (≈ 0.674 µg/mL) | solubility at 15 min ([6]; pH 7, read-out: solubility at pH 7): ~0.058 µg/mL (≈ 0.129 µM); AUCinf (extrapolated) [14]: 47.1^e μ·h/mL; Cmax [14]: 3300 ng/mL; Tmax [14]: 8.0 h; t1/2 [14]: 5.2 h
O=[N+]([O-])c1cn2c(n1)OC(COc1ccc(-c3ccc(F)cc3)cc1)CC2 (centres unmarked) [compound 49] |  |  | 0.01 µM |  |  |  |  | > 128 µM | MIC ([10]; Mycobacterium tuberculosis, H37RV, read-out: MIC MABA, aerobic): 0.18 µM (≈ 0.0665 µg/mL); % inhibition of parasite infection in the spleen [15]: 51%
O=[N+]([O-])c1cn2c(n1)OC(COc1ncc(-c3ccc(F)cc3)cn1)CC2 (centres unmarked) [compound 129] | 1.8 µg/mL (≈ 4.85 µM) | > 64 µM | 0.1 µM | 0.29 µM | 0.02 to 0.04 µM (≈ 0.00743 to 0.0149 µg/mL) | 0.17 µM | 85% | 1.7 µM (≈ 0.631 µg/mL) | MIC ([10]; aerobic, read-out: MIC MABA): 0.04 µM (≈ 0.0149 µg/mL)
